Test results: PubChem BioAssay (NCI)
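All cell lines were grown in 96-well plates and treated with compound for 48 hours. At the TGI there is no net growth.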

Key:
Experiment in all cases: growth of human tumour cells (NCI), 48 h
TK-10 renal = system: TK-10 renal
CAKI-1 renal = system: CAKI-1 renal
UO-31 renal = system: UO-31 renal
DU-145 prostate = system: DU-145 prostate
HCT-116 colon = system: HCT-116 colon
HOP-92 NSCLC = system: HOP-92 NSCLC
UACC-62 melanoma = system: UACC-62 melanoma
SF-539 CNS = system: SF-539 CNS
HOP-62 NSCLC = system: HOP-62 NSCLC
SW-620 colon = system: SW-620 colon
MDA-MB-231 breast = system: MDA-MB-231 breast
HS 578T breast = system: HS 578T breast
LOX IMVI melanoma = system: LOX IMVI melanoma
IGROV1 ovarian = system: IGROV1 ovarian
CCRF-CEM leukemia = system: CCRF-CEM leukemia
SNB-75 CNS = system: SNB-75 CNS
OVCAR-8 ovarian = system: OVCAR-8 ovarian
K-562 leukemia = system: K-562 leukemia
OVCAR-5 ovarian = system: OVCAR-5 ovarian
HCC-2998 colon = system: HCC-2998 colon
OVCAR-4 ovarian = system: OVCAR-4 ovarian
EKVX NSCLC = system: EKVX NSCLC
A498 renal = system: A498 renal
NCI-H226 lung = system: NCI-H226 lung
BT-549 breast = system: BT-549 breast
NCI-H23 lung = system: NCI-H23 lung
A549 NSCLC = system: A549 NSCLC
M14 melanoma = system: M14 melanoma
MDA-N = system: MDA-N
UACC-257 melanoma = system: UACC-257 melanoma
MDA-MB-435 = system: MDA-MB-435
SN12C renal = system: SN12C renal
MOLT-4 leukemia = system: MOLT-4 leukemia
KM12 colon = system: KM12 colon
NCI-H460 lung = system: NCI-H460 lung
MCF7 breast = system: MCF7 breast
PC-3 prostate = system: PC-3 prostate
HL-60(TB) leukemia = system: HL-60(TB) leukemia
HCT-15 colon = system: HCT-15 colon
SNB-19 CNS = system: SNB-19 CNS
OVCAR-3 ovarian = system: OVCAR-3 ovarian
SK-MEL-28 melanoma = system: SK-MEL-28 melanoma
COLO 205 colon = system: COLO 205 colon
SK-MEL-2 melanoma = system: SK-MEL-2 melanoma
U251 CNS = system: U251 CNS
T-47D breast = system: T-47D breast
SF-295 CNS = system: SF-295 CNS
NCI-H522 lung = system: NCI-H522 lung
ACHN renal = system: ACHN renal
SF-268 CNS = system: SF-268 CNS
NCI/ADR-RES ovarian = system: NCI/ADR-RES ovarian
SK-OV-3 ovarian = system: SK-OV-3 ovarian
RPMI-8226 leukemia = system: RPMI-8226 leukemia
SK-MEL-5 melanoma = system: SK-MEL-5 melanoma
HT29 colon = system: HT29 colon
MALME-3M melanoma = system: MALME-3M melanoma
786-0 renal = system: 786-0 renal
RXF 393 renal = system: RXF 393 renal

C[Si](C)(OCCS(=O)(=O)O)C1(Cc2cccc3ccccc23)S(=O)(=O)OCCOS1(=O)=O
TGI (TK-10 renal): 50.9 µM | TGI (CAKI-1 renal): 31.4 µM | TGI (UO-31 renal): 32.4 µM | TGI (DU-145 prostate): 37.4 µM | TGI (HCT-116 colon): 37.8 µM | TGI (HOP-92 NSCLC): 50.7 µM | TGI (UACC-62 melanoma): 43 µM | TGI (SF-539 CNS): 39.5 µM | TGI (HOP-62 NSCLC): 45 µM | TGI (SW-620 colon): 33.7 µM | TGI (MDA-MB-231 breast): 43.3 µM | TGI (HS 578T breast): 95 µM | TGI (LOX IMVI melanoma): 34 µM | TGI (IGROV1 ovarian): 36.3 µM | TGI (CCRF-CEM leukemia): 45.9 µM | TGI (SNB-75 CNS): 55.1 µM | TGI (OVCAR-8 ovarian): 52.4 µM | TGI (K-562 leukemia): > 100 µM | TGI (OVCAR-5 ovarian): 33.1 µM | TGI (HCC-2998 colon): 30.7 µM | TGI (OVCAR-4 ovarian): 52.3 µM | TGI (EKVX NSCLC): 32.3 µM | TGI (A498 renal): 30.8 µM | TGI (NCI-H226 lung): 45.8 µM | TGI (BT-549 breast): 33.5 µM | TGI (NCI-H23 lung): 96 µM | TGI (A549 NSCLC): 65.2 µM | TGI (M14 melanoma): 46.1 µM | TGI (MDA-N): 41.9 µM | TGI (UACC-257 melanoma): 80.1 µM | TGI (MDA-MB-435): 43 µM | TGI (SN12C renal): 41.3 µM | TGI (MOLT-4 leukemia): > 100 µM | TGI (KM12 colon): 29.5 µM | TGI (NCI-H460 lung): 41.1 µM | TGI (MCF7 breast): 39.5 µM | TGI (PC-3 prostate): 45.4 µM | TGI (HL-60(TB) leukemia): 51.8 µM | TGI (HCT-15 colon): 52.1 µM | TGI (SNB-19 CNS): 42.9 µM | TGI (OVCAR-3 ovarian): 25.9 µM | TGI (SK-MEL-28 melanoma): 37 µM | TGI (COLO 205 colon): 25.3 µM | TGI (SK-MEL-2 melanoma): 46.3 µM | TGI (U251 CNS): 63.7 µM | TGI (T-47D breast): 34.6 µM | TGI (SF-295 CNS): 69.9 µM | TGI (NCI-H522 lung): 30.5 µM | TGI (ACHN renal): 51.9 µM | TGI (SF-268 CNS): 79.5 µM | TGI (NCI/ADR-RES ovarian): > 100 µM | TGI (SK-OV-3 ovarian): 35.6 µM | TGI (RPMI-8226 leukemia): 57 µM | TGI (SK-MEL-5 melanoma): 31.1 µM

COC(=O)[C@@H]1[C@@H](c2cccc(Cl)c2)[C@H](C(=O)OC)C2(C[C@@]1(C)O)NCCS2 (some centres undefined)
TGI (TK-10 renal): > 100 µM | TGI (CAKI-1 renal): > 100 µM | TGI (UO-31 renal): > 100 µM | TGI (DU-145 prostate): > 100 µM | TGI (HCT-116 colon): > 100 µM | TGI (HOP-92 NSCLC): > 100 µM | TGI (UACC-62 melanoma): > 100 µM | TGI (SF-539 CNS): > 100 µM | TGI (HOP-62 NSCLC): > 100 µM | TGI (HT29 colon): > 100 µM | TGI (SW-620 colon): > 100 µM | TGI (MDA-MB-231 breast): > 100 µM | TGI (HS 578T breast): > 100 µM | TGI (MALME-3M melanoma): > 100 µM | TGI (LOX IMVI melanoma): > 100 µM | TGI (IGROV1 ovarian): > 100 µM | TGI (CCRF-CEM leukemia): 14.6 µM | TGI (SNB-75 CNS): > 100 µM | TGI (OVCAR-8 ovarian): > 100 µM | TGI (K-562 leukemia): > 100 µM | TGI (OVCAR-5 ovarian): > 100 µM | TGI (OVCAR-4 ovarian): > 100 µM | TGI (EKVX NSCLC): > 100 µM | TGI (A498 renal): > 100 µM | TGI (NCI-H226 lung): > 100 µM | TGI (BT-549 breast): > 100 µM | TGI (NCI-H23 lung): > 100 µM | TGI (A549 NSCLC): > 100 µM | TGI (M14 melanoma): > 100 µM | TGI (MDA-N): > 100 µM | TGI (UACC-257 melanoma): > 100 µM | TGI (MDA-MB-435): > 100 µM | TGI (SN12C renal): > 100 µM | TGI (MOLT-4 leukemia): 42.1 µM | TGI (KM12 colon): > 100 µM | TGI (NCI-H460 lung): > 100 µM | TGI (MCF7 breast): > 100 µM | TGI (PC-3 prostate): > 100 µM | TGI (HCT-15 colon): > 100 µM | TGI (SNB-19 CNS): > 100 µM | TGI (OVCAR-3 ovarian): > 100 µM | TGI (SK-MEL-28 melanoma): > 100 µM | TGI (786-0 renal): > 100 µM | TGI (COLO 205 colon): > 100 µM | TGI (SK-MEL-2 melanoma): 94 µM | TGI (U251 CNS): > 100 µM | TGI (T-47D breast): > 100 µM | TGI (SF-295 CNS): > 100 µM | TGI (NCI-H522 lung): > 100 µM | TGI (ACHN renal): > 100 µM | TGI (SF-268 CNS): > 100 µM | TGI (NCI/ADR-RES ovarian): > 100 µM | TGI (SK-OV-3 ovarian): > 100 µM | TGI (RXF 393 renal): > 100 µM | TGI (SK-MEL-5 melanoma): > 100 µM
